Measurements published in patent publication US20210382058A1, “PATIENT SELECTION FOR TREATMENT OF MYC POSITIVE CANCERS WITH INDENOISOQUINOLINES” (Purdue Research Foundation, priority 2020, published 2021).
Like-named read-outs stand apart in the source and are kept apart here.

Columns and labels:
[1] = tested on: MYC protein expression in MCF-7 breast cancer cells; test: Western blotting of MYC protein level in MCF-7 cells; assay type: cell-based, human
Summary of the method: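 Immunoblotting with ECL detection quantified MYC, with GAPDH (1:2000) as reference and anti-MYC at 1:1000.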

NCI-60 cancer cell lines = test: NCI-60 cancer cell line drug screen (GI50, MGM); assay type: cell-based, human; settings: Homo sapiens; for GI50: read-out: Antiproliferative Activities [GI50 (μM)]
Method: Cancer cells were incubated with the test compounds at five concentrations ranging from 100 μM to 10 nM for 48 h. […] The approximate average of GI50 values across the entire panel of NCI-60 cancer cell lines for each compound was recorded as the MGM value.

human topoisomerase I = biological target: T1, human topoisomerase I (Homo sapiens, UniProt P11387); settings: relative topoisomerase I inhibition levels, previously determined, six levels (0 - 5, +++++ = 5); cited from earlier work
T1 sequence (P11387 1-765): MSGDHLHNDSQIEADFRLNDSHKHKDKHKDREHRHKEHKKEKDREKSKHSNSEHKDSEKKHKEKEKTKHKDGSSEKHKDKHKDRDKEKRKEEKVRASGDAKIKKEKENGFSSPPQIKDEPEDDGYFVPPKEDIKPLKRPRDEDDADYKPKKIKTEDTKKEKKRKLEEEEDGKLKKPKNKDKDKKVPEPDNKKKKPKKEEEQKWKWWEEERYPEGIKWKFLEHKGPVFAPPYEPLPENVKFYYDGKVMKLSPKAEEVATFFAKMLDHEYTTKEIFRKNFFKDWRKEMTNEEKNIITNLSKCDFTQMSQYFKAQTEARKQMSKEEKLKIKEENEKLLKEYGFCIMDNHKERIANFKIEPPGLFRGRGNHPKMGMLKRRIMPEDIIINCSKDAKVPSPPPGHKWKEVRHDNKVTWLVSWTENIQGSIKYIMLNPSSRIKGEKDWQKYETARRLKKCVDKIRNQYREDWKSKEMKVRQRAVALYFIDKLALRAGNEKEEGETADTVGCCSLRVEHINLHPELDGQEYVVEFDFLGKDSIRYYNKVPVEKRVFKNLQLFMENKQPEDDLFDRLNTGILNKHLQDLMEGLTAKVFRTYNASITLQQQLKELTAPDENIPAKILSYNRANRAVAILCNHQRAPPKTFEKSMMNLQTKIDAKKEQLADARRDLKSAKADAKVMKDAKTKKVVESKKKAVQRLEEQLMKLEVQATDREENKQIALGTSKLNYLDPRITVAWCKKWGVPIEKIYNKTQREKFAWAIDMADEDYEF

With CNCCCn1c2c(c3ccc(F)cc3c1=O)C(=O)c1cc(OC)cnc1-2 [Compound 6] the minimal effective concentration ([1]; Homo sapiens, MCF7, western blotting, MCF-7 cells, 0.5, 1, 2, and 4 μM, 24 hours, read-out: MYC Inhibition) was 0.5 to 1 µM, the “MYC-inhibitory effect (MYC protein, western blot)” value ([1]; MCF-7, 0.5, 1, 2, and 4 μM, 24 h) was “clear MYC-inhibitory effect” and the GI50 (NCI-60 cancer cell lines; 786-0, Renal Cancer, 786-0) was 0.2 µM. It also gave a GI50 (NCI-60 cancer cell lines; A498, Renal Cancer, A498) of 0.37 µM, a GI50 (NCI-60 cancer cell lines; A549, Non-Small Cell Lung Cancer, A549/ATCC) of 0.11 µM and a GI50 (NCI-60 cancer cell lines; ACHN, Renal Cancer, ACHN) of 0.12 µM. For the same molecule, the GI50 (NCI-60 cancer cell lines; BT-549, Breast Cancer, BT-549) was 0.58 µM, the GI50 (NCI-60 cancer cell lines; CCRF-CEM, Leukemia, CCRF-CEM) was 0.26 µM and the GI50 (NCI-60 cancer cell lines; COLO 205, Colon Cancer, COLO 205) was 0.07 µM. The GI50 (NCI-60 cancer cell lines; DU-145, Prostate Cancer, DU-145) was 0.2 µM, the GI50 (NCI-60 cancer cell lines; EKVX, Non-Small Cell Lung Cancer, EKVX) was 0.3 µM and the GI50 (NCI-60 cancer cell lines; HCC 2998, Colon Cancer, HCC-2998) was 1.15 µM. The GI50 (NCI-60 cancer cell lines; HCT-15, Colon Cancer, HCT-15) was 0.25 µM, the GI50 (NCI-60 cancer cell lines; HCT-116, Colon Cancer, HCT-116) was 0.14 µM and the GI50 (NCI-60 cancer cell lines; HL-60, Leukemia, HL-60(TB)) was 0.22 µM. For the same molecule, the GI50 (NCI-60 cancer cell lines; HOP-62, Non-Small Cell Lung Cancer, HOP-62) was 0.14 µM, the GI50 (NCI-60 cancer cell lines; HOP-92, Non-Small Cell Lung Cancer, HOP-92) was 0.37 µM and the GI50 (NCI-60 cancer cell lines; HT-29, Colon Cancer, HT29) was 0.15 µM. The GI50 (NCI-60 cancer cell lines; Hs-578T, Breast Cancer, HS 578T) was 2.24 µM, the GI50 (NCI-60 cancer cell lines; IGROV-1, Ovarian Cancer, IGROV1) was 0.32 µM and the GI50 (NCI-60 cancer cell lines; K562, Leukemia, K-562) was 0.17 µM. For the same molecule, the GI50 (NCI-60 cancer cell lines; KM12, Colon Cancer, KM12) was 0.24 µM, the GI50 (NCI-60 cancer cell lines; LOX IMVI, Melanoma, LOX IMVI) was 0.14 µM and the GI50 (NCI-60 cancer cell lines; Leukemia, SR) was 0.12 µM. It also gave a GI50 (NCI-60 cancer cell lines; MCF7, Breast Cancer, MCF7) of 0.03 µM, a GI50 (NCI-60 cancer cell lines; MDA-MB-231, Breast Cancer, MDA-MB-231/ATCC) of 0.7 µM and a GI50 (NCI-60 cancer cell lines; MDA-MB-435, Melanoma, MDA-MB-435) of 0.47 µM. For the same molecule, the GI50 (NCI-60 cancer cell lines; MDA-MB-468, Breast Cancer, MDA-MB-468) was 0.22 µM, the GI50 (NCI-60 cancer cell lines; MOLT-4, Leukemia, MOLT-4) was 0.04 µM and the GI50 (NCI-60 cancer cell lines; Malme-3M, Melanoma, MALME-3M) was 0.32 µM. It also gave a GI50 (NCI-60 cancer cell lines; Melanoma, M14) of 0.31 µM, a GI50 (NCI-60 cancer cell lines; NCI-H23, Non-Small Cell Lung Cancer, NCI-H23) of 0.31 µM and a GI50 (NCI-60 cancer cell lines; NCI-H226, Non-Small Cell Lung Cancer, NCI-H226) of 0.16 µM. For the same molecule, the GI50 (NCI-60 cancer cell lines; NCI-H322M, Non-Small Cell Lung Cancer, NCI-H322M) was 0.45 µM, the GI50 (NCI-60 cancer cell lines; NCI-H460, Non-Small Cell Lung Cancer, NCI-H460) was 0.05 µM and the GI50 (NCI-60 cancer cell lines; NCI-H522, Non-Small Cell Lung Cancer, NCI-H522) was 0.06 µM. It also gave a GI50 (NCI-60 cancer cell lines; OVCAR-3, Ovarian Cancer, OVCAR-3) of 0.26 µM, a GI50 (NCI-60 cancer cell lines; OVCAR-4, Ovarian Cancer, OVCAR-4) of 0.42 µM and a GI50 (NCI-60 cancer cell lines; OVCAR-5, Ovarian Cancer, OVCAR-5) of 0.35 µM. The GI50 (NCI-60 cancer cell lines; OVCAR-8, Ovarian Cancer, OVCAR-8) was 0.19 µM, the GI50 (NCI-60 cancer cell lines; Ovarian Cancer, NCl/ADR-RES) was 0.43 µM and the GI50 (NCI-60 cancer cell lines; Prostate Cancer, PC-3) was 0.37 µM. The GI50 (NCI-60 cancer cell lines; RPMI-8226, Leukemia, RPMI-8226) was 0.2 µM, the GI50 (NCI-60 cancer cell lines; RXF 393, Renal Cancer, RXF 393) was 0.32 µM and the GI50 (NCI-60 cancer cell lines; Renal Cancer, U0-31) was 0.13 µM. For the same molecule, the GI50 (NCI-60 cancer cell lines; SF-268, CNS Cancer, SF-268) was 0.38 µM, the GI50 (NCI-60 cancer cell lines; SF-295, CNS Cancer, SF-295) was 0.19 µM and the GI50 (NCI-60 cancer cell lines; SF-539, CNS Cancer, SF-539) was 0.37 µM. For the same molecule, the GI50 (NCI-60 cancer cell lines; SK-MEL-2, Melanoma, SK-MEL-2) was 1.6 µM, the GI50 (NCI-60 cancer cell lines; SK-MEL-5, Melanoma, SK-MEL-5) was 0.31 µM and the GI50 (NCI-60 cancer cell lines; SK-MEL-28, Melanoma, SK-MEL-28) was 1.44 µM. For the same molecule, the GI50 (NCI-60 cancer cell lines; SK-OV-3, Ovarian Cancer, SK-OV-3) was 0.23 µM, the GI50 (NCI-60 cancer cell lines; SN12C, Renal Cancer, SN12C) was 0.21 µM and the GI50 (NCI-60 cancer cell lines; SNB-19, CNS Cancer, SNB-19) was 0.22 µM. The GI50 (NCI-60 cancer cell lines; SNB-75, CNS Cancer, SNB-75) was 0.25 µM, the GI50 (NCI-60 cancer cell lines; SW-620, Colon Cancer, SW-620) was 0.18 µM and the GI50 (NCI-60 cancer cell lines; T47D, Breast Cancer, T-47D) was 0.16 µM. For the same molecule, the GI50 (NCI-60 cancer cell lines; TK-10, Renal Cancer, TK-10) was 0.33 µM, the GI50 (NCI-60 cancer cell lines; U-251, CNS Cancer, U251) was 0.11 µM and the GI50 (NCI-60 cancer cell lines; UACC-62, Melanoma, UACC-62) was 0.61 µM. For the same molecule, the GI50 (NCI-60 cancer cell lines; UACC-257, Melanoma, UACC-257) was 0.49 µM, the mean GI50 across NCI-60 panel (MGM) (NCI-60 cancer cell lines; average of GI50 values across the entire panel of NCI-60 cancer cell lines) was 0.24 µM and the “Top1 Inhibiton” value (human topoisomerase I) was “+ (weak inhibition, +, MYC expression inhibited at 4.0 μM)”.
